Reference: ChEMBL document CHEMBL1152090, “Engineering of cyclic peptides with novel inhibiting properties to differentiate two serine proteases, chymotrypsin and subtilisin Carlsberg” (Bioorg Med Chem Lett, 1994)

Legend:
Chymotrypsinogen A [1] = biological target: T1, Chymotrypsinogen A (Bos taurus, UniProt P00766); experiment: Compound was tested for the inhibition of chymotrypsin at 120 nM
Chymotrypsinogen A [2] = biological target: T1, Chymotrypsinogen A; experiment: Compound was tested for the inhibition of chymotrypsin at 276 nM
[3] = Compound was tested for the inhibition of subtilisin carlsberg at 300 nM
[4] = Compound was tested for the inhibition of subtilisin carlsberg at 690 nM
[5] = system: CC[C@H](C)[C@@H]1NC(=O)[C@@H](CCCN=C(N)N)NC(=O)[C@H](Cc2ccc(O)cc2)NC(=O)[C@@H](CCC(=O)O)NC(=O)[C@H](CCSC)NC(=O)[C@@H]([C@@H](C)O)NC(=O)[C@H](N)CCC(=O)NCCCC[C@H](C(N)=O)NC(=O)[C@@H](C(C)C)NC(=O)[C@H](CCCN=C(N)N)NC(=O)[C@@H](CCC(=O)O)NC1=O; details: 276 nM
[6] = system: CC[C@H](C)[C@@H]1NC(=O)[C@@H](CCCN=C(N)N)NC(=O)[C@H](Cc2ccc(O)cc2)NC(=O)[C@@H](CCC(=O)O)NC(=O)[C@H](CCSC)NC(=O)[C@@H]([C@@H](C)O)NC(=O)[C@H](N)CCC(=O)NCCCC[C@H](C(N)=O)NC(=O)[C@@H](C(C)C)NC(=O)[C@H](CCCN=C(N)N)NC(=O)[C@@H](CCC(=O)O)NC1=O; details: 120 nM
[7] = system: CC[C@H](C)[C@@H]1NC(=O)[C@@H](CCCN=C(N)N)NC(=O)[C@H](Cc2ccc(O)cc2)NC(=O)[C@@H](CCC(=O)O)NC(=O)[C@H](CCSC)NC(=O)[C@@H]([C@@H](C)O)NC(=O)[C@H](N)CCC(=O)NCCCC[C@H](C(N)=O)NC(=O)[C@@H](C(C)C)NC(=O)[C@H](CCCN=C(N)N)NC(=O)[C@@H](CCC(=O)O)NC1=O; details: 276 nM; remark: listed apart in the source
[8] = system: CC[C@H](C)[C@@H]1NC(=O)[C@@H](CCCN=C(N)N)NC(=O)[C@H](Cc2ccc(O)cc2)NC(=O)[C@@H](CCC(=O)O)NC(=O)[C@H](CCSC)NC(=O)[C@@H]([C@@H](C)O)NC(=O)[C@H](N)CCC(=O)NCCCC[C@H](C(N)=O)NC(=O)[C@@H](C(C)C)NC(=O)[C@H](CCCN=C(N)N)NC(=O)[C@@H](CCC(=O)O)NC1=O; details: 120 nM; remark: listed apart in the source
[9] = biological target: Chymotrypsinogen A (Bos taurus) (UniProt P00766); details: 120 nM
[10] = biological target: Chymotrypsinogen A (Bos taurus) (UniProt P00766); details: 276 nM
Chymotrypsinogen A [11] = biological target: T1, Chymotrypsinogen A; experiment: Compound was tested for the inhibition of chymotrypsin at 138 nM
Chymotrypsinogen A [12] = biological target: T1, Chymotrypsinogen A; experiment: Compound was tested for the inhibition of chymotrypsin at 69 nM
[13] = Compound was tested for the inhibition of subtilisin carlsberg at 138 nM
[14] = Compound was tested for the inhibition of subtilisin carlsberg at 23 nM

## CC[C@H](C)[C@@H]1NC(=O)[C@H](CCCNC(=N)N)NC(=O)[C@H](Cc2ccc(O)cc2)NC(=O)[C@H](CCC(=O)O)NC(=O)[C@H](CCSC)NC(=O)[C@H]([C@@H](C)O)NC(=O)[C@@H](N)CCC(=O)NCCCC[C@@H](C(N)=O)NC(=O)[C@H](C(C)C)NC(=O)[C@H](CCCNC(=N)N)NC(=O)[C@H](CCC(=O)O)NC1=O
Chymotrypsinogen A [1]
  Ki: 668 nM
Chymotrypsinogen A [2]
  Ki: 656 nM
[3]
  Ki: 775 nM
[4]
  Ki: 786 nM

## Chymotrypsinogen A (Bos taurus) (from UniProt P00766)
[5]
  Km: 298 µM
[6]
  Vmax: 3.89e-07 M⁻¹ s⁻¹
[7]
  Vmax: 3.23e-07 M⁻¹ s⁻¹
[8]
  Km: 310 µM

## CC[C@H](C)[C@@H]1NC(=O)[C@@H](CCCN=C(N)N)NC(=O)[C@H](Cc2ccc(O)cc2)NC(=O)[C@@H](CCC(=O)O)NC(=O)[C@H](CCSC)NC(=O)[C@@H]([C@@H](C)O)NC(=O)[C@H](N)CCC(=O)NCCCC[C@H](C(N)=O)NC(=O)[C@@H](C(C)C)NC(=O)[C@H](CCCN=C(N)N)NC(=O)[C@@H](CCC(=O)O)NC1=O
[9]
  k cat: 55.1 s⁻¹
[10]
  k cat: 45.8 s⁻¹

## CC[C@H](C)[C@@H]1NC(=O)[C@@H](NC(C)=O)CC(=O)/N=C(/N)NCCC[C@@H](C(N)=O)NC(=O)[C@H](Cc2ccc(O)cc2)NC(=O)[C@H](CCC(=O)O)NC(=O)[C@H](CCSC)NC(=O)[C@H]([C@@H](C)O)NC(=O)[C@H](C(C)C)NC1=O
Chymotrypsinogen A [11]
  Ki: 191 nM
Chymotrypsinogen A [12]
  Ki: 203 nM
[13]
  Ki: 116 nM
[14]
  Ki: 128 nM
